From patent US9980936B2, “BH4 antagonists and methods related thereto” (Emory University, priority 2014, dated 2018)
Entries after “also recorded” stand apart in the source; their conditions may differ. Read-outs that look alike come from different tables or passages of the source.

How the values were obtained:
[1] = system: H1299 cells overexpressing Bcl2 AAAA mutant; assay: cell survival of H1299 cells overexpressing compound Bcl2 AAAA mutant; assay type: cell-based
From the text: (§1) A panel of Bcl2 mutants were generated within the BH4 domain at the specific residues that were identified by the initial docking simulations, including D10A, N11A, R12A, E13A, M16A, K17A, H20A and D31A Bcl2 mutants. A compound Bcl2 mutant D10A/N11A/R12A/E13A (AAAA) was created. Recombinant proteins of these mutants were generated for BDA-2/Bcl2 binding analysis using a competitive fluorescence polarization. […] Second, WT and all Bcl2 mutants were exogenously overexpressed in H1299 cells that express undetectable levels of endogenous Bcl2.

[2] = system: PDX obtained from a patient with refractory SCLC; assay: patient-derived xenografts (PDX) of refractory SCLC; assay type: in vivo, Mice; conditions: 20 mg/kg/d i.p., 2 weeks
Description: Mice carrying xenografts derived from a patient with refractory SCLC were treated with BDA-366 (20 mg/kg/d) via i.p. for 2 weeks.
To evaluate the anti-tumor activity of BDA-2 against SCLC in vivo, patient-derived xenografts (PDX) were established without intervening in vitro culture, which are expected to better recapitulate the SCLC tumor setting.

Plasmid pUC19 DNA = assay: electrophoretic mobility shift assay (EMSA); assay type: binding
Description: To test whether BDA-2 reacts with DNA as a crosslinker, electrophoretic mobility shift assay (EMSA) was performed. Cisplatin, a known DNA binding agent, was used as positive control. Plasmid pUC19 DNA was incubated with BDA-2 or cisplatin.

Mc1-1 = Mc1-1 (Homo sapiens, UniProt Q07820); assay: binding to other Bcl2 family members
[3] = molecular target: T1, Bcl2 mutant D10A/N11A/R12A/E13A (AAAA) (Homo sapiens, UniProt P10415, D10A/E13A/N11A/R12A); assay: competitive fluorescence polarization, compound BH4 mutant; assay type: binding
T1 construct: made in house
From the text: as §1

SCLC cell lines = assay: growth of SCLC cell lines; assay type: cell-based
[4] = system: D10A, N11A, R12A, E13A, M16A, K17A, H20A and D31A Bcl2 mutants; assay: competitive fluorescence polarization, BH4 single-site mutants; assay type: binding; conditions: single mutation at each individual residue
From the text: as §1

purified recombinant Bax = assay: cell-free Bax activation (IP using 6A7 Bax antibody); assay type: biochemical
Description: BDA-366-induced Bcl2 conformational change was also confirmed by immunofluorescence using a Bcl2/BH3-domain specific antibody. […] To test this possibility, a 6A7 Bax antibody that only recognizes the conformationally changed, active, form of Bax was employed. Purified Bcl2 was treated with BDA-366 in lysis buffer for 1 h. The mixture of Bcl2/BDA-2 was then incubated with purified recombinant Bax for another 2 h, followed by IP using 6A7 antibody.
(§2) To further test whether the BH3 domain of Bcl2 is important for BDA-366 activation of Bax, purified recombinant WT and the BH3 deletion (ΔBH3) mutant Bcl2 proteins were incubated with purified Bax protein in the absence or presence of BDA-366, followed by IP with 6A7 antibody. […] To test this at the cellular or mitochondrial level, WT, ΔBH3 Bcl2 mutant and empty vector (pCIneo) were transfected into H1299 cells that express undetectable levels of endogenous Bcl2 but high levels of endogenous Bax. Cells or isolated mitochondria from these cells were treated with BDA-2, followed by IP with Bcl2 BH3 or 6A7 antibody, respectively.

[5] = system: H460 or DMS53 cells expressing Bcl2 shRNA transfected with WT Bcl2; assay: rescue of Bcl2-silenced cells with exogenous WT Bcl2; assay type: cell-based; conditions: 72 h
From the text: Whether expression of exogenous Bcl2 can restore the sensitivity of Bcl2-silenced lung cancer cells to BDA-2 and whether the BDA-2/BH4 binding is important for such effect was examined. WT and BDA-2 binding deficient D10A/N11A/R12A/E13A (AAAA) Bcl2 mutant cDNA in pCIneo or vector-only control were transfected into H460 or DMS53 cells expressing Bcl2 shRNA. It has been reported that if the shRNA is directed to the 3′ UTR or 5′ UTR of the gene, the effect of the shRNA1 can be rescued by ectopically expressing the protein using the wild-type or mutant cDNA. Because Bcl2 shRNA1 targets the 5′UTR of endogenous Bcl2, the silencing effect of shRNA1 on Bcl2 expression could be rescued by transfection of exogenous WT or AAAA Bcl2 mutant. After transfection, cells were treated with BDA-2 or the BH3 mimetic ABT-199 at the indicated concentrations for 72 h. […] The apoptotic effect of BDA-2 on lung cancer cells requires its BH4 binding.

[6] = system: H1299 cells or isolated mitochondria; assay: H1299 cells or isolated mitochondria expressing WT, ΔBH3 Bcl2 or vector: IP and Cyt c release; assay type: cell-based
Description: as §2
To further test whether BDA-366 induces Cyt c release from mitochondria in a Bcl2 dependent fashion, mitochondria were isolated from H1299 cells expressing WT, ΔBH3 mutant Bcl2 or vector-only control. The isolated mitochondria were treated with BDA-366 (1 μM) for 30 min at 30° C. After centrifugation, Cyt c in the supernatant (i.e. Cyt c release) was analyzed by Western blot.

[7] = system: Bcl2 and Bax in H460 xenograft tumor tissues; assay: QD-IHF of Bcl2 and Bax conformational change in tumor tissues; assay type: in vivo, mice; conditions: 14 days
From the text: Quantum dot-based immunohistofluorescence (QD-IHF) technology has recently been developed as a valuable tool for simultaneous and concurrent immunostaining of multiple biomarkers in formalin-fixed paraffin-embedded (FFPE) tissues, thereby allowing for quantification of several biomarkers simultaneously on the same tissue slide. To determine whether BDA-366 induces Bcl2 conformation change by exposure of its BH3 domain in tumor tissues and whether the BH3 domain-exposed Bcl2 activates Bax, conformational changes in both Bcl2 and Bax were simultaneously analyzed by QD-IHF on the same tissue slide.

in vivo = assay: in vivo
Description: In order to define the appropriate doses for in vivo experimentation, the maximum tolerated dose (MTD) was determined. Nu/Nu nude mice were treated in groups of 6 per dose level with increasing doses of BDA-366 (10-50 mg/kg/d) intraperitoneally (i.p.) for up to 12 days. […] Standard single-dose MTD treatment in normal C57BL/6 mice were measured. […] 10% of single dose MTD can usually be considered as the maximum therapeutic dose (30˜40 mg/kg) for continuous treatment.

Sequence of Mc1-1 (Q07820 whole entry): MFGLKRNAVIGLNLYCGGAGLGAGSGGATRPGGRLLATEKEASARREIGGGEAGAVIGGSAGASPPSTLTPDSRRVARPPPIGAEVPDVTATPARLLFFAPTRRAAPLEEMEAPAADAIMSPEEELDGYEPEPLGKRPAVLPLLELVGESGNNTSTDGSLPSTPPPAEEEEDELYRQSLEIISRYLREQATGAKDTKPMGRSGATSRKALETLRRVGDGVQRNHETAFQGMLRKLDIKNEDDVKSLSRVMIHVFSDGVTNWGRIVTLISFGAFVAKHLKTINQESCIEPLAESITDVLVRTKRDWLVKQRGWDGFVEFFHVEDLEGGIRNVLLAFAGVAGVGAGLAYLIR
T1 sequence (P10415 whole entry D10A/N11A/R12A/E13A): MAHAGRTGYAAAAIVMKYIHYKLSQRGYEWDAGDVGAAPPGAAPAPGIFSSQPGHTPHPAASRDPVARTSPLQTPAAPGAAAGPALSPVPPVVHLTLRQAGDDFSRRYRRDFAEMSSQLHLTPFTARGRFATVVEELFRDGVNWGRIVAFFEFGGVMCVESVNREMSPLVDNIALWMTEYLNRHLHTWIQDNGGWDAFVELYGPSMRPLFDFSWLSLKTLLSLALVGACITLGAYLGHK

For `CCN(CC)CC(O)CNc1ccc(NCC2CO2)c2c1C(=O)c1ccccc1C2=O` (stereo not shown) [BDA-366, 1-((3-(diethylamino)-2-hydroxypropyl)amino)-4-((oxiran-2-ylmethyl)amino)anthracene-9,10-dione], the “cell survival on exposure, AAAA mutant overexpressed” value [1] was “significantly prolonged cell survival”, the “growth of SCLC PDX” value [2] was “effectively suppressed the growth of PDX; also recorded: potently suppressed the growth of the SCLC PDX; also recorded: represses tumor growth in xenografts derived from SCLC patient” and the “binding to pUC19 DNA causing mobility shift” value (Plasmid pUC19 DNA) was “not”. The “binding to Mc1-1” value (Mc1-1) was “failed to bind”, the “binding to Mc1-1” value (Mc1-1; listed as BDA-2) was “did not bind” and the “binding to AAAA Bcl2 mutant protein” value [3] was “remarkably decreased BDA-2 binding”. The “growth of SCLC cell lines” value (SCLC cell lines) was “efficiently suppressed growth of SCLC cell lines”, the “binding to single-site Bcl2 mutants” value [4] was “did not significantly reduce Bcl2's ability to bind BDA-2” and the “Bax binding to 6A7 antibody induced by compound-treated Bcl2” value (purified recombinant Bax; Bcl2 treated 1 h, then Bax 2 h) was “enhanced the ability of Bax to bind to 6A7 antibody”. For the same molecule, the “Bax activation by WT Bcl2 in the presence of compound” value (purified recombinant Bax; WT Bcl2) was “can activate Bax via 6A7 conformational change”, the “direct activation of Bax” value (purified recombinant Bax; without Bcl2) was “not a direct Bax activator” and the “Bax activation by ΔBH3 mutant Bcl2 in the presence of compound” value (purified recombinant Bax; ΔBH3 mutant Bcl2) was “not”. For the same molecule, the “sensitivity of cells after expression of exogenous WT Bcl2” value [5] was “restored sensitivity”, the “Cyt c release from isolated mitochondria” value ([6]; WT Bcl2, 1 μM, 30 min at 30° C.) was “induced Cyt c release” and the “Bcl2 conformational change and Bax activation” value ([6]; cells or isolated mitochondria containing WT Bcl2) was “induced Bcl2 conformational change in association with Bax activation”. For the same molecule, the “Bcl2 conformational change and Bax activation” value ([6]; ΔBH3 Bcl2 mutant or vector-only control) was “not”, the “6A7 binding to Bax (active form of Bax) in tumor tissues” value [7] was “increased level of 6A7 binding to Bax” and the “exposure of the Bcl2 BH3 domain in tumor tissues” value [7] was “dose-dependent exposure of the Bcl2 BH3 domain in tumor tissues”. For the same molecule, the “total Bcl2 and Bax levels in tumor tissues” value [7] was “no significant changes in total Bcl2 and Bax levels”, the “time to death of mice” value (in vivo; C57BL/6, mouse, 400 mg/kg) was 4 days and the MTD (in vivo; C57BL/6, mouse, maximum therapeutic dose for continuous treatment (10% of single dose MTD)) was 30 to 40 mg/kg. The MTD (in vivo; C57BL/6, mouse, single dose MTD) was 300 to 400 mg/kg, the “ALT and AST” value (in vivo; mouse, 400 mg/kg) was “significantly enhanced” and the “pathological analysis for all organs” value (in vivo; mouse, 400 mg/kg) was “microsteatosis in the liver and atrophic white pulp in the spleen”. The “weight loss or other toxicities (hematologic, liver and kidney functions)” value (in vivo; mouse, ip, 300 mg/kg) was “did not cause weight loss or other toxicities”.
